Assay results: US20240261234A1, “USE OF C[…] THE TREATMENT OF NOCTURNAL SNORING” (GW Research Limited, priority 2014, published 2024)
Values joined by “and” are separate entries in the source; they are usually repeats but may differ in a detail not shown here. Equal entries are not always repeated. “Also recorded” adds a separate entry of the source.

Tests used:
[1] = tested on: nocturnal snoring in a patient with Doose Syndrome; experiment: Expanded access compassionate use program: nocturnal snoring with CBD therapy; format: in vivo, children and young adults
Experimental: (§1) Of 137 children and young adults with severe, childhood onset treatment-resistant epilepsy (TRE), six suffered from Doose Syndrome. These subjects were tested with a highly purified extract of cannabidiol (CBD) obtained from a cannabis plant. The participants in the study were part of an expanded access compassionate use program for CBD.
(§2) All of these patients with a diagnosis of Doose Syndrome presented with multiple seizure types which included tonic-clonic seizures; myoclonic seizures; atonic seizures; absence seizures; myoclonic-absence seizures; and tonic seizures. In addition nocturnal snoring was encountered by one of the patients in the study.
(§3) The patients then received a highly purified CBD extract (greater than 98% CBD w/w) in sesame oil, of known and constant composition, at a dose of 5 mg/kg/day in addition to their baseline anti-epileptic drug (AED) regimen.
Table 5 below describes the data that was collated for the other seizure types including nocturnal snoring.

[2] = tested on: seizures in treatment-resistant epilepsy characterised by Doose Syndrome; experiment: Expanded access compassionate use program: seizure frequency with CBD therapy in Doose Syndrome; format: in vivo, children and young adults
Experimental: as §1, §2
Both patients entered a baseline period of 4 weeks when parents/caregivers kept prospective seizure diaries, noting all countable motor seizure types.
as §3
Laboratory testing for hematologic, liver, kidney function, and concomitant AED levels was performed at baseline, and after CBD therapy.
All patients were taking at least two concomitant anti-epileptic drugs. These included clobazam; diazepam; lacosamide; lamotrigine; levetiracetam; lorazepam; nordiazepam; n-desmethylclobazam; phenytoin; valproic acid; zonisamide. The average number of concomitant antiepileptic drugs being taken was 2.7. The majority took either clobazam and/or valproic acid.
There were 6 children and young adult patients who received at least 3 months of treatment all of whom suffered from treatment-resistant epilepsy which is characterised by Doose Syndrome.
The change from baseline in the number of different seizures and total number of seizures after 16 weeks treatment are summarized in Table 4 below.

[3] = Solubility of the drug substance in water; format: physicochemical
Source text: The drug substance, CBD is insoluble in water. Sesame oil was selected as an excipient to solubilize the drug substance.

apnea hypopnea index = conditions: short term; small trial; cited from earlier work
[4] = nocturnal snoring (n = 1), Doose Syndrome patient
[5] = absence seizures (n = 3), Doose Syndrome patients
[6] = atonic seizures (n = 2), Doose Syndrome patients
[7] = tonic-clonic seizures (n = 5), Doose Syndrome patients

| SMILES | Effect on occurrence of nocturnal snoring (in words) ([1]; a child with Doose Syndrome) | Patients with <50% reduction in nocturnal snoring [1, 4] [%] | Patients with >50% reduction in nocturnal snoring [1, 4] [%] | Patients with <50% reduction in absence seizures [2, 5] [%] | Patients with >50% reduction in absence seizures [2, 5] [%] | Number of Doose syndrome patients with a decrease in total seizure frequency ([2]; after 3 months of therapy, of 6 patients) | Patients with <50% reduction in atonic seizures [2, 6] [%] | Patients with >50% reduction in atonic seizures [2, 6] [%] | Effect on seizure sub-types associated with Doose Syndrome (in words) ([2]; patients not responding well to existing AED) | Change in baseline (%) in total seizure frequency ([2]; per subject (subjects 1-6, Doose Syndrome), after 16 weeks treatment, CBD 5 up to 25 mg/kg/day added to baseline AED) | >50% reduction in seizures (total seizures) ([2]; per subject (subjects 1-6, Doose Syndrome), after 16 weeks treatment, Yes/No) | Patients with <50% reduction in tonic-clonic seizures [2, 7] [%] | Patients with >50% reduction in tonic-clonic seizures [2, 7] [%] | Solubility in water [3] | Effect on apnea hypopnea index (apnea hypopnea index) |
| --- | --- | --- | --- | --- | --- | --- | --- | --- | --- | --- | --- | --- | --- | --- | --- |
| C=C(C)[C@@H]1CCC(C)=C[C@H]1c1c(O)cc(CCCCC)cc1O [CBD, Cannabidiol] | completely eliminate the occurrence of nocturnal snoring | 0 | 100 | 0 | 100 | five | 50 | 50 | very effective treatment for all of the seizure sub-types; also recorded: significantly reduces the number of seizures | −100.0% (2×) and 65.8% and −67.4% and −68.7% and −92.0% | Yes (5×) and No | 20 | 80 | insoluble | – |
| CCCCCc1cc(O)c2c(c1)OC(C)(C)[C@@H]1CCC(C)=C[C@@H]21 [dronabinol, Tetrahydro- cannabinol] | – | – | – | – | – | – | – | – | – | – | – | – | – | – | able to reduce the apnea hypopnea index |
